Tests used:
[1] = test system: mannan binding lectin (MBL); test: Binding of lectin pathway recognition molecule to coated HUVEC after serum exposure, flow cytometry; assay type: cell-based, human; details: 0.5 mg/ml
Experimental: (§1) Post analysis processing was carried out in FlowJo.

[2] = test system: porcine kidney transplant, ischemia reperfusion injury; test: Porcine allogeneic survival transplantation model (SM); assay type: in vivo, pig; details: for IFNγ level / IL-1α level / IL-1β level / IL-2 level / IL-4 level / IL-6 level / IL-10 level / IL-12 level / IL-18 level: vs untreated control kidneys
Experimental: During and after surgery, systemic blood was collected for up to 4 days and analyzed for creatinine, sodium, potassium and phosphate (Section for Clinical Chemistry, Uppsala University Hospital).
Multiplex protein analyses using multiplex Luminex xMAP Technology (Millipore Corporation, Billerica, MA, USA) were performed using a porcine specific kit for 12 cytokines/chemokines: Interferon-gamma (INFγ), Interleukins IL-1b, IL-2, IL-1a, IL-1RA, IL-4, IL-6, IL-10, IL-18, IL-8, IL-12, and TNF. Plasma was incubated with agent-specific-coloured magnetic beads, thereafter with detection antibodies and streptavidin-phycoerythrin (Millipore Corporation). Plates were measured using a MAGPIX instrument (Luminex Corporation, Austin, TX, USA). Raw data [median fluorescence intensity (MFI)] was translated into protein concentration (ng/ml) using a standard curve.
These studies were approved by the Ethics Committee for Animal Experimentation, Uppsala, Sweden, Dnr C123/14. For each of these studies (SM and CLSM) five donor pigs and 10 recipient pigs of both sexes were used. All pigs were certified SPF pigs (Yorkshire×Hampshire) and bred at Lövsta University herd, SLU, Sweden. At arrival to SLU the pigs were 8 weeks old.
For the SM study, the pigs were selected after typing for Swine Leucocyte Antigen (SLA) class 1 in the following manner: the donor pigs were obtained from two litters and not related to any of the recipients. The recipient pigs were siblings, matched in pairs according to SLA class 1 (see below). For the CLSM study, all recipient pigs were siblings and not related to the donors, but these the pigs were not SLA-typed.
SM study: the kidneys were retrieved en bloc using the same procedure as in the ANSM study. Also here, the kidneys were exposed to an initial warm ischemia of less than 5 minutes. […] Post preservation, the kidneys were randomized to receive either PEG-phospholipid (15 mL, 2 mg/mL) or HTK solution at +4° C. by injection through the renal artery after clamping of the renal vein. During a 40-60 min incubation, the renal artery and vein were maintained clamped. The SM study comprised 6 kidneys treated with PEG-phospholipid and 4 control kidneys.
The recipient pigs underwent allogeneic single kidney transplantation. Through a 15-20 cm abdominal midline incision, the iliac vessels in the right iliac fossa were identified and carefully mobilized. The distal segment of the vena cava as well as the iliac artery (from its emergence from the aorta) were mobilized, sealing the surrounding lymphoid tissue. The renal graft was thereafter placed in the right iliac fossa in the proximity of the iliac vessels. The renal vein and artery were trimmed, and subsequently anastomosed in an end-to-side fashion to the recipient's right iliac artery and distal vena cava using a polypropylene 7/0 running suture (PROLENE®, Ethicon, US). The ureters were implanted by extravesical ureteroneocystostomy to the top of the bladder by 6-0 polydioxanone suture (PDS®, Ethicon, US). Thereafter, bilateral nephrectomy of the native kidneys was performed. The midline incision was closed by running a 2/0 polyglactin (VICRYL®, Ethicon, US) fascia suture and skin clips. No anticoagulants were given to the recipient. After the inguinal transplantation was completed, urine was collected directly from the bladder by cystocentesis, showing that all of the transplanted kidneys had started to produce urine soon after reperfusion. By using a urine stick the sample was analyzed for proteinurea and hematuria. The mean duration of the surgery was 2.5 hours (1.75-3.25 hours).
During and after transplantation, EDTA blood was collected from the local renal vein at 0, 15, 30 and 60 min after reperfusion, and systemic blood samples were obtained at 1, 2, 3, and 4 days after surgery. […]

[3] = test system: CD31; test: Masking of antigens on HUVECs by coating with PEG-phospholipid, flow cytometry; assay type: cell-based, human; details: HUVEC, 0.5 mg/ml, 45 mins RT
Experimental: (§2) One hundred μL of HUVEC cell pellet (5×10^4 cells) were incubated in 0.5 mg/ml of PEG-phospholipid solution (final concentration, polyethylene glycol-phospholipid with PEG of 5 kDa (PEG-phospholipid) in PBS, SUNBRIGHT® PP-050CN, N-(methylpolyoxyethylene oxycarbonyl)-1,2-dipalmitoyl-sn-glycero-3-phosphoethanolamine, sodium salt, NOF Corp., Japan) or PBS for 45 mins at RT. Then, the cells were incubated with 5 μg/mL of FITC labelled antibodies for 15 min at RT: CD31 antibody (5 μg/ml) or isotype control Ab-FITC (BD biosciences) or with rabbit anti von Willebrand Factor (vWF) with rabbit IgG as control, both visualized by Alexa 488 goat anti-rabbit antibodies as given in Table 1.
as §1

[4] = test system: von Willebrand Factor (vWF); test: as above; assay type: cell-based, human; details: HUVEC, 0.5 mg/ml, 45 mins RT
Experimental: as §2, §1

[5] = 60 min following transplantation
[6] = 4 days following transplantation
[7] = kidney vein, 5 min, in most cases
[8] = up to 4 days post-transplantation

N-(methylpolyoxyethylene oxycarbonyl)-1,2-dipalmitoyl-sn-glycero-3-phosphoethanolamine [PEG-phospholipid]
decrease of MBL binding from human serum [1]: 25-30% | binding of C3b in renal biopsies ([2]; 5 min and necropsy day 4): lower binding | IFNγ level [2, 5]: not any significant difference | IL-1α level [2, 5]: not any significant difference | IL-1β level [2, 5]: not any significant difference | IL-2 level [2, 5]: not any significant difference | IL-4 level [2, 5]: not any significant difference | IL-6 level [2, 5]: not any significant difference | IL-10 level [2, 5]: not any significant difference | IL-12 level [2, 5]: not any significant difference | IL-18 level [2, 5]: not any significant difference | IFNγ level [2, 6]: significantly lower levels | IL-1α level [2, 6]: significantly lower levels | IL-1β level [2, 6]: significantly lower levels | IL-2 level [2, 6]: significantly lower levels | IL-4 level [2, 6]: significantly lower levels | IL-6 level [2, 6]: significantly lower levels | IL-10 level [2, 6]: significantly lower levels | IL-12 level [2, 6]: significantly lower levels | IL-18 level [2, 6]: significantly lower levels | IL-1RA protein level ([2]; after 96 hours): unaffected | IL-8 protein level ([2]; after 96 hours): unaffected | IL-1a protein level [2, 7]: suppressed | IL-12 protein level [2, 7]: suppressed | creatinine levels post-transplantation ([2]; recipients' blood, 24-96 hours, vs control grafts): significantly lower | C3a in blood samples [2, 8]: substantially lower | TAT in blood samples [2, 8]: substantially lower | sC5b-9 in blood samples [2, 8]: substantially lower | masking of CD31 [3]: < 20% | detection of vWF [4]: did not decrease
